In assay [1] the test system is KYSE-70 esophageal cancer cell line. The assay is described as follows: Cell growth inhibition of KYSE-70 (Sulforhodamine B). To be noted: Homo sapiens; KYSE-70, 72 hours; read-out: KYSE70 GI50. The assay is classed as cell-based. The method, then:
The cell line according to the present invention was selected as KYSE-70, an esophageal cancer cell line in which YES1 is amplified. The evaluation of cell growth inhibition was performed as follows.
KYSE-70 was cultured in RPMI-1640 (Capricorn) supplemented with 10% FBS (Cellgro). The cells were seeded 24 hours prior to compound treatment, into three 96-well F-bottom clear plates (Greiner), with 7,500 cells per well in 180 μL of medium. The 10 mM compound was diluted 100-fold in medium to prepare a 100 μM compound, which was then placed into a 96-well plate and further 3-fold diluted in medium to prepare a compound plate with concentrations ranging from 0.046 μM to 100 μM. 20 μL of each compound from the drug plate was added to the cell-seeded plates to achieve final concentrations of 0.0046 μM to 10 μM. At the same time, 50 μL of 33% trichloroacetic acid was injected into one plate and the plate was fixed by incubating at 4° C. This was referred to as the Do plate. Viable cells were measured 72 hours after compound treatment by injecting 50 μL of 33% trichloroacetic acid and incubating at 4° C. for more than 1 hour to fix the cells. This was referred to as the D3 plate. After the Do plate and D3 plates were washed 5 times with sterile water, 100 μL of 0.04% Sulforhodamine B solution in 1% acetic acid was added and reacted for 1 hour to stain the cells. After staining, the plates were washed 4 times with 1% acetic acid solution and completely dried. Then, the Sulforhodamine B bound to cellular proteins was completely dissolved with 10 mM Tris base solution (pH 10.5). The absorbance was measured at a wavelength of 510 nm using a microplate reader (TECAN, sunrise microplate reader). The analysis was performed using GraphPad Prism. The average absorbance of the Do plate was set to 0%, and the average absorbance of the negative control of the D3 plate was set to 100%, from which a graph was drawn and the GI50 values were calculated. Each test was performed twice.

A further assay concerns the target YES1 kinase (Homo sapiens, UniProt P07947). The assay is described as follows: YES1 kinase inhibition, ADP Glo assay (Promega). The note with it: for inhibition at 0.01 µM: compound 10 nM, read-out: YES1 enzyme, % inhibition, 10 nM; for inhibition at 0.1 µM: compound 100 nM, read-out: YES1 enzyme, % inhibition, 100 nM; for IC50: class symbols, read-out: YES1 enzyme, IC50. The assay is classed as biochemical. The method, then:
To evaluate the inhibitory activity against YES1 kinase of the compound according to the present invention, ADP Glo assay (Promega) was used, and the following method was performed with reference to the Promega kinase enzyme system protocol. To proceed with the experiment, buffers A-F and compound dilution plates were required.
To prepare A.4X reaction buffer, 800 μl of 5X reaction buffer and 200 μl of distilled water were used. To prepare B.4X kinase buffer, 996.6 μl of A.4X reaction buffer, 2 μl of 0.1M DTT, and 3.2 μl of 2.5M MnCl2 were added and mixed. To prepare C.1X kinase buffer (containing 5% DMSO) used for compound dilution, 250 μl of B.4X kinase buffer, 700 μl of distilled water, and 50 μl of DMSO were added, so that the final DMSO concentration became 5%. Then, 10 mM compounds were diluted 100-fold to prepare 100 μM solutions, and then D.5X inhibitor solution was prepared so that the compound concentration became 5 uM. Using a 96-well plate, 5 μM compounds were 3-fold diluted using C.1X kinase buffer (containing 5% DMSO) to prepare compound plates with concentrations ranging from 0.25 μM to 5 μM. The resulting plates were stored at room temperature. To prepare E. 2.5X ATP/substrate mixture, 50 μl of B.4X kinase buffer, 50 μl of […], and 100 μl of substrate were mixed. To prepare F YES1 kinase enzyme solution, 35 μl of B.4X kinase buffer, 0.4 μl of YES1 enzyme, and 104.6 μl of distilled water were used. Once the diluted compound plates, ATP/substrate mixture, and YES1 kinase solution were all prepared, 3 μL each was transferred from the diluted compound plate to a luciferase 96-well white plate (Since the total volume of the ATP/substrate and YES1 kinase solution that reacts with the compound is 15 μL, the compounds were diluted 5-fold, making the final compound concentration 0.05 μM-1 μM). Then, 6 μL of F. YES1 Kinase Enzyme Solution was transferred to each well, pipetted 10 times to mix, and incubated at room temperature in a shaker for 10 minutes. Next, 6 μL of E. 2.5X ATP/Substrate Mixture was transferred to each well, pipetted 10 times to mix, and centrifuged at 12,000 rpm for 5 minutes. The plate was then incubated in a shaker at room temperature for 40 minutes. After that, 15 μL of ADP-Glo Reagent, dissolved at room temperature, was added to each well, pipetted 10 times, and incubated in a shaker at room temperature for 40 minutes. Finally, 30 μL of Kinase Detection Reagent, dissolved at room temperature, was added, pipetted 10 times, incubated in a shaker at room temperature for 30 minutes. Luminescence was measured using a luminescence plate reader. Then, the background value was subtracted from all measured values, and the YES1 kinase activity at compound concentrations of 1 nM, 10 nM, and 100 nM was calculated. The measured values were calculated as percentages using the average value of the negative control. Graphs were drawn using GraphPad Prism, and the enzyme activity was calculated as a percentage of YES1 kinase inhibition at compound concentrations of 1 nM, 10 nM, and 100 nM. IC50 values were obtained using Microsoft Excel.
(In general: ADP-Glo first removes unused ATP, then detects ADP through luciferase.)

Sequence of YES1 kinase (P07947 whole entry): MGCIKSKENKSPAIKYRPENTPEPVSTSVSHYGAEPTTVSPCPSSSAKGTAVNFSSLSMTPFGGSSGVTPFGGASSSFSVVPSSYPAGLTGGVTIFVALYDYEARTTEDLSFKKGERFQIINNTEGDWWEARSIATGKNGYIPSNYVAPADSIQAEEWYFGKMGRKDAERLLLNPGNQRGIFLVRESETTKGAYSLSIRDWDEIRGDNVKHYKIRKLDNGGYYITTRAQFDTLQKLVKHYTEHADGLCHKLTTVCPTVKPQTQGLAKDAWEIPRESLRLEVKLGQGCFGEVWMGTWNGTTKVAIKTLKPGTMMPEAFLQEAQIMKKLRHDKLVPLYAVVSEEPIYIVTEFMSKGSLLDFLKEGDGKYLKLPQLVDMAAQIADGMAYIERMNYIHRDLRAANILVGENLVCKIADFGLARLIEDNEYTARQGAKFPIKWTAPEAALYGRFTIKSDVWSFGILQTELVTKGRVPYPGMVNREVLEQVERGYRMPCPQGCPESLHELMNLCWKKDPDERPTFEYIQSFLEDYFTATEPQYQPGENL

By GI50 is commonly meant the concentration giving 50% growth inhibition. Broadly, the inhibition is the relative decrease from the control value, in per cent. For the molecule `COc1cc(-c2cc(-c3ccc4c(c3)OCCN4C)n3ncnc(N)c23)ccc1NC(=O)OC(C)(C)C` [Example 7, tert-butyl (4-(4-amino-7-(4-methyl-3,4-dihydro-2H-benzo[b][1,4]oxazin-7-yl)pyrrolo[2,1-f][1,2,4]triazin-5-yl)-2-methoxyphenyl)carbamate], the GI50 in assay [1] lay in the range of 1 to 10 µM. Moreover, at YES1 kinase, the inhibition at 0.01 µM is 28% and the inhibition at 0.1 µM amounted to 49%.

Usually IC50 stands for the concentration needed to halve the response being measured. Consider `COc1cc(-c2cc(N3CCC4(CC3)CC(=O)N4)n3ncnc(N)c23)ccc1NC(=O)OC(C)(C)C` [Example 56, tert-butyl (4-(4-amino-7-(2-oxo-1,7-diazaspiro[3.5]nonan-7-yl)pyrrolo[2,1-f][1,2,4]triazin-5-yl)-2-methoxyphenyl)carbamate], for which the GI50 in assay [1] is not above 0.1 µM. At YES1 kinase, the IC50 was not above 0.1 µM, the inhibition at 0.01 µM came to 23% and the inhibition at 0.1 µM came out at 68%.

On to `COc1cc(-c2cc(N3CC(C)C(N)C(C)C3)n3ncnc(N)c23)ccc1NC(=O)OC(C)(C)C` (stereo not shown) [Example 91, tert-butyl (4-(4-amino-7-(4-amino-3,5-dimethylpiperidin-1-yl)pyrrolo[2,1-f][1,2,4]triazin-5-yl)-2-methoxyphenyl)carbamate], for which the GI50 in assay [1] was in the range of 0.1 to 1 µM. For the same molecule, on YES1 kinase, the inhibition at 0.01 µM was 21% and the inhibition at 0.1 µM stood at 59%.

On to `COc1cc(-c2cc(N3CC[C@H](N)[C@@H](C(F)(F)F)C3)n3ncnc(N)c23)ccc1NC(=O)OC(C)(C)C` [Example 85, tert-butyl (4-(4-amino-7-((3S,4S)-4-amino-3-(trifluoromethyl)piperidin-1-yl)pyrrolo[2,1-f][1,2,4]triazin-5-yl)-2-methoxyphenyl)carbamate], for which the GI50 in assay [1] is not above 0.1 µM. On YES1 kinase, the IC50 was not above 0.1 µM, the inhibition at 0.01 µM was determined as 59% and the inhibition at 0.1 µM came to 78%.

Consider `COc1cc(-c2cc(N3CCC(C)(N)CC3)n3ncnc(N)c23)ccc1NC(=O)OC(C)(C)C` [Example 45, tert-butyl (4-(4-amino-7-(4-amino-4-methylpiperidin-1-yl)pyrrolo[2,1-f][1,2,4]triazin-5-yl)-2-methoxyphenyl)carbamate], for which the GI50 in assay [1] is not above 0.1 µM. Further, at YES1 kinase, the IC50 is not above 0.1 µM, the inhibition at 0.01 µM was found to be 80% and the inhibition at 0.1 µM was 92%.

On to `COc1cc(-c2cc(-c3ccc4c(c3)OCC(=O)N4C)n3ncnc(N)c23)ccc1NC(=O)OC(C)(C)C` [Example 8, tert-butyl (4-(4-amino-7-(4-methyl-3-oxo-3,4-dihydro-2H-benzo[b][1,4]oxazin-7-yl)pyrrolo[2,1-f][1,2,4]triazin-5-yl)-2-methoxyphenyl)carbamate], for which the GI50 in assay [1] was more than 10 µM. On YES1 kinase, the inhibition at 0.01 µM was 33% and the inhibition at 0.1 µM came to 64%.

As for `COc1cc(-c2cc(-c3ccc4c(c3)oc(=O)n4C)n3ncnc(N)c23)ccc1NC(=O)OC(C)(C)C` [Example 9, tert-butyl (4-(4-amino-7-(3-methyl-2-oxo-2,3-dihydrobenzo[d]oxazol-6-yl)pyrrolo[2,1-f][1,2,4]triazin-5-yl)-2-methoxyphenyl)carbamate], the GI50 in assay [1] was 1 to 10 µM. At YES1 kinase, the inhibition at 0.01 µM was found to be 39% and the inhibition at 0.1 µM came out at 57%.

For the molecule `COc1cc(-c2cc(N3CCC4(CN(C)C4)C3)n3ncnc(N)c23)ccc1NC(=O)OC(C)(C)C` [Example 37, tert-butyl (4-(4-amino-7-(2-methyl-2,6-diazaspiro[3.4]octan-6-yl)pyrrolo[2,1-f][1,2,4]triazin-5-yl)-2-methoxyphenyl)carbamate], the GI50 in assay [1] fell in the range of 0.1 to 1 µM. For the same molecule, at YES1 kinase, the inhibition at 0.01 µM turned out to be 24% and the inhibition at 0.1 µM came out at 69%.

In the case of `COc1cc(-c2cc(N3CCC4(CCC(=O)N4)CC3)n3ncnc(N)c23)ccc1NC(=O)OC(C)(C)C` [Example 54, tert-butyl (4-(4-amino-7-(2-oxo-1,8-diazaspiro[4.5]decan-8-yl)pyrrolo[2,1-f][1,2,4]triazin-5-yl)-2-methoxyphenyl)carbamate], the GI50 in assay [1] is not above 0.1 µM. For the same molecule, on YES1 kinase, the IC50 is not above 0.1 µM, the inhibition at 0.01 µM was 20% and the inhibition at 0.1 µM was found to be 60%.

As for `COc1cc(-c2cc(N3CC4(CC(N(C)C)C4)C3)n3ncnc(N)c23)ccc1NC(=O)OC(C)(C)C` [Example 18, tert-butyl (4-(4-amino-7-(6-(dimethylamino)-2-azaspiro[3.3]heptan-2-yl)pyrrolo[2,1-f][1,2,4]triazin-5-yl)-2-methoxyphenyl)carbamate], in assay [1], the 50% growth inhibitory concentration (GI50) lay within 0.1 to 1 µM. Moreover, at YES1 kinase, the inhibition at 0.01 µM stood at 39% and the inhibition at 0.1 µM turned out to be 81%.

For `COc1cc(-c2cc(NCC3CCNCC3)n3ncnc(N)c23)ccc1NC(=O)OC(C)(C)C` [Example 117, tert-butyl (4-(4-amino-7-((piperidin-4-ylmethyl)amino)pyrrolo[2,1-f][1,2,4]triazin-5-yl)-2-methoxyphenyl)carbamate], the GI50 in assay [1] was 0.1 to 1 µM. For the same molecule, on YES1 kinase, the inhibition at 0.01 µM is 39% and the inhibition at 0.1 µM came out at 64%.

As for `COc1cc(-c2cc(N3CCC(C)(CN)CC3)n3ncnc(N)c23)ccc1NC(=O)OC(C)(C)C` [Example 123, tert-butyl (4-(4-amino-7-(4-(aminomethyl)-4-methylpiperidin-1-yl)pyrrolo[2,1-f][1,2,4]triazin-5-yl)-2-methoxyphenyl)carbamate], in assay [1], the GI50 is not above 0.1 µM. Also, the IC50 at YES1 kinase was not above 0.1 µM.

Turning to `COc1cc(-c2c(F)c(N3CCC(N(C)C)CC3)n3ncnc(N)c23)ccc1NC(=O)OC(C)(C)C` [Example 128, tert-butyl (4-(4-amino-7-(4-(dimethylamino)piperidin-1-yl)-6-fluoropyrrolo[2,1-f][1,2,4]triazin-5-yl)-2-methoxyphenyl)carbamate], the GI50 in assay [1] is not above 0.1 µM. Moreover, at YES1 kinase, the IC50 was not above 0.1 µM, the inhibition at 0.01 µM was 72% and the inhibition at 0.1 µM amounted to 92%.

As to `COc1cc(-c2cc(N3CCC4(CCN(C)C4)CC3)n3ncnc(N)c23)ccc1NC(=O)OC(C)(C)C` [Example 22, tert-butyl (4-(4-amino-7-(2-methyl-2,8-diazaspiro[4.5]decan-8-yl)pyrrolo[2,1-f][1,2,4]triazin-5-yl)-2-methoxyphenyl)carbamate], the GI50 in assay [1] is 0.1 to 1 µM. In addition, on YES1 kinase, the inhibition at 0.01 µM amounted to 60% and the inhibition at 0.1 µM worked out at 87%.
